Measured values published in patent publication US20210315893A1 (Galapagos NV, priority 2017, published 2021).

Assays:
S1PR2 = molecular target: T1, S1PR2 (Homo sapiens, UniProt O95136); test: S1PR2 binding assay (competition with radioactively labeled S1P, SpA); settings: membranes from stable cell line over expressing S1PR2, SpA beads; read-out: S1P2 EC50 (nM), S1PR2 binding EC50
T1 construct: expressed in transfected cells
Experimental: The following assay can be used for determination of S1PR2 binding. The binding assay measures the potential to compete with radioactively labeled S1P for binding to the receptor.
The assay is performed in a96 well plate where the following reagents are added. First 50 μL compound is added into the assay plate, followed by addition of 100 μL ofa mixture consisting of membrane and Scintillation proximity Assay (SpA) beads [mixture consists […] membranes derived from stable cell line over expressing SPR2, 0.5 mg/well Polyvinyltoluene-Wheat Germ-Agglutinin (PVT-WGA) beads (Perkin Elmer, RPNQOO1)]. All components are diluted in assay buffer containing 20 mM Tris pH 7.5; 10 mM MgCl2; 100 mM NaCl; 0.4% BSA FAF; 1 mM Na3VO4) and incubated for 15 min until addition to the assay plate. Subsequently, 50 ul of radioactively labeled S1P is added to the wells (Sphingosine, D-erythro-[3-3H] 1-phosphate; ARC; ART0778). After an incubation for 2 h at room temperature, plates are centrifuged at 2000 rpm during 20 min. Plates are read on a Topcount reader (Perkin Elmer) immediately after centrifugation (readout time, 1 min/well).

HFL-1 cells [1] = test: IL8 assay in the presence of Human Serum Albumin; settings: HFL1, read-out: HSA IL8 EC50
HFL-1 cells [2] = test: IL-8 production assay (S1P induced IL-8); format: cell-based; settings: Homo sapiens, HFL1; S1P (1 μM) induced IL-8 in HFL-1 cells, starvation medium without HSA; read-out: IL8 EC50
Experimental: This assay is designed to test inhibitory activity of compounds on S1P induced IL-8 on HFL-1 cells, ahuman fetal lung fibroblast cell line.
Human Fetal Lung cells (HFL-1) are seeded in 96 well plates in growth medium (F12K+10% heat inactivated FBS+l1% Pen/strep). After overnight incubation at 37° C., […] cells are refreshed with starvation medium without HSA (F12K+1% FBS+1% Pen/strep). On day three, compounds are added (10 point serial dilution, 30 μM highest concentration, 1/3 dilution, 0.3% DMSO final) and plates are incubated for one h at 37° C., 5% CO2. Subsequently S1P at 1 μM final concentration is added and plates are incubated for 16 to24 h at 37° C., […] after which the supermatant was collected. IL-8 levels in the supernatant are determined with the IL-8 ELISA of R&D systems.

[3] = molecular target: T2, human GPCR sphingosine 1-phosphate receptor 2 (Homo sapiens, UniProt O95136); test: S1PR2 antagonist Ca2+ flux assay; format: cell-based; settings: antagonist mode, CHO-S1PR2 cells, S1P at EC80, Ca2+ fluorescence; read-out: S1P2 EC50 (nM), S1P2 antagonist EC50
T2 construct: host or cells: CHO
T2 sequence (O95136 whole entry): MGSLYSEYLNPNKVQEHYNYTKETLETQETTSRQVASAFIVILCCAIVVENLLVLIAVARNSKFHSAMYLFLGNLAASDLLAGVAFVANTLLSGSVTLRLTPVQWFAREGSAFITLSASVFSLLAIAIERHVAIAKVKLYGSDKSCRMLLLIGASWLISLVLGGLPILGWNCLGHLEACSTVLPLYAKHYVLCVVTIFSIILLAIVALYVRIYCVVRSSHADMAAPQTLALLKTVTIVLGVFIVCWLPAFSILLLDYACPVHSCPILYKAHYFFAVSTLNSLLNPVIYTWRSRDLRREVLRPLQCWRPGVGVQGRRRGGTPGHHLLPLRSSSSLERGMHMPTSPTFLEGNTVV
In short: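 Antagonist mode: 15 min after compound addition, S1P (EC80) stimulates Fluo8-loaded, 1 h-starved CHO-S1PR2 cells, Ca2+ read over 3 min; a prior 3-min read checks compound agonism. EC50 from peak/baseline fluorescence ratio, normalised versus vehicle and S1P EC50 (antagonist) or EC100 (agonist).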

T1 sequence (O95136 whole entry): as above

Row | EC50 (S1PR2) [nM] | EC50 (HFL-1 cells [1]) [µM] | EC50 (HFL-1 cells [2]) [µM] | EC50 [3] [nM] | Structure (SMILES)
1 | 3900 | 10 | 1.11 | 868 | O=c1c2ccccc2c(Cc2nc3cc(Cl)c(OC(F)(F)F)cc3[nH]2)nn1CC1CC1 [Compound 27, 4-[[6-chloro-5-(trifluoromethoxy)-1H-benzimidazol-2-yl]methyl]-2-(cyclopropylmethyl)phthalazin-1-one]
2 | 93.3 | 0.0745 | 0.0137 | 9.47 | COc1ccc2c(=O)n(CC(=O)N3CCOCC3)nc(Cc3nc4cc(Cl)c(OCC(F)F)cc4[nH]3)c2c1 [Compound 30, 4-[[5-chloro-6-(2,2-difluoroethoxy)-1H-benzimidazol-2-yl]methyl]-6-methoxy-2-(2-morpholino-2-oxo-ethyl)phthalazin-1-one]
3 | 93.2 | 0.0726 | 0.011 | 9.11 | COc1ccc2c(Cc3nc4cc(Cl)c(OCC(F)F)cc4[nH]3)nn(CC(=O)N3CCOCC3)c(=O)c2c1 [Compound 31, 4-[[5-chloro-6-(2,2-difluoroethoxy)-1H-benzimidazol-2-yl]methyl]-7-methoxy-2-(2-morpholino-2-oxo-ethyl)phthalazin-1-one]
4 | 378 | 0.129 | 0.0156 | 86.5 | O=C(Cn1nc(Cc2nc3cc(Cl)c(OCC(F)F)cc3[nH]2)c2ccc(N3CCOCC3)cc2c1=O)N1CCOCC1 [Compound 33, 4-[[5-chloro-6-(2,2-difluoroethoxy)-1H-benzimidazol-2-yl]methyl]-7-morpholino-2-(2-morpholino-2-oxo-ethyl)phthalazin-1-one]
5 | 261 | 0.292 | 0.145 | 86.4 | N#Cc1ccc2c(Cc3nc4cc(Cl)c(OCC(F)F)cc4[nH]3)nn(CC(=O)N3CCOCC3)c(=O)c2c1 [Compound 40, 1-[[5-chloro-6-(2,2-difluoroethoxy)-1H-benzimidazol-2-yl]methyl]-3-(2-morpholino-2-oxo-ethyl)-4-oxo-phthalazine-6-carbonitrile]
6 | 1310 | 2.78 | 0.685 | 1050 | CS(=O)(=O)c1ccc2c(=O)n(CC(=O)N3CCOCC3)nc(Cc3nc4cc(Cl)c(OCC(F)F)cc4[nH]3)c2c1 [Compound 41, 4-[[5-chloro-6-(2,2-difluoroethoxy)-1H-benzimidazol-2-yl]methyl]-6-methylsulfonyl-2-(2-morpholino-2-oxo-ethyl)phthalazin-1-one]
7 | 4520 | 10 | 1.36 | 2240 | O=C(O)C1(Cn2nc(Cc3nc4cc(Cl)c(OC(F)(F)F)cc4[nH]3)c3ccccc3c2=O)CC1 [Compound 47, 1-[[4-[[5-chloro-6-(trifluoromethoxy)-1H-benzimidazol-2-yl]methyl]-1-oxo-phthalazin-2-yl]methyl]cyclopropanecarboxylic acid]
8 | 93.5 | 0.0411 | 0.0322 | 23.8 | N#Cc1cc2[nH]c(Cc3nn(CC(=O)N4CCOCC4)c(=O)c4cccc(C5CC5)c34)nc2cc1OCC(F)F [Compound 54, 2-[[8-cyclopropyl-3-(2-morpholino-2-oxo-ethyl)-4-oxo-phthalazin-1-yl]methyl]-6-(2,2-difluoroethoxy)-3H-benzimidazole-5-carbonitrile]
9 | 581 | 1.12 | 0.591 | 677 | O=c1c2ccccc2c(Cc2nc3cc(Cl)c(OC(F)(F)F)cc3[nH]2)nn1CC1CNC1 [Compound 61, 2-(azetidin-3-ylmethyl)-4-[[6-chloro-5-(trifluoromethoxy)-1H-benzimidazol-2-yl]methyl]phthalazin-1-one]
10 | 453 | 6.43 | 0.349 | 968 | O=c1c2ccccc2c(Cc2nc3cc(Cl)c(OC(F)(F)F)cc3[nH]2)nn1C1CCNCC1 [Compound 62, 4-[[6-chloro-5-(trifluoromethoxy)-1H-benzimidazol-2-yl]methyl]-2-(4-piperidyl)phthalazin-1-one]
11 | 478 | 0.563 | 0.365 | 1330 | N#Cc1cc2nc(Cc3nn(C4CN(CC(=O)O)C4)c(=O)c4ccccc34)cn2cc1OCC1CC1 [Compound 73]
12 | 5330 | 0.779 | 0.823 | 2660 | CN(C)CC(C(=O)O)n1nc(Cc2nc3cc(OCC(F)F)c(C#N)cc3[nH]2)c2ccccc2c1=O (stereo not shown) [Compound 74, 2-[4-[[6-cyano-5-(2,2-difluoroethoxy)-1H-benzimidazol-2-yl]methyl]-1-oxo-phthalazin-2-yl]-3-(dimethylamino)propanoic acid]
13 | 2920 | 1.3 | 0.938 | 3850 | N#Cc1cc2[nH]c(Cc3nn(C(CN4CCC4)C(=O)O)c(=O)c4ccccc34)nc2cc1OCC(F)F (stereo not shown) [Compound 75, 3-(azetidin-1-yl)-2-[4-[[6-cyano-5-(2,2-difluoroethoxy)-1H-benzimidazol-2-yl]methyl]-1-oxo-phthalazin-2-yl]propanoic acid]
14 | 55.9 | 0.0415 | 0.00465 | 6.16 | O=C(O)Cc1nn(Cc2nc3cc(OCC(F)F)c(Cl)cc3[nH]2)c2ccccc2c1=O [Compound 78, {1-[6-Chloro-5-(2,2-difluoro-ethoxy)-1H-benzoimidazol-2-ylmethyl]-4-oxo-1,4-dihydro-cinnolin-3-yl}-acetic acid]
15 | 223 | 0.108 | 0.0189 | 4.59 | CCC(C(=O)O)c1nn(Cc2cn3cc(OCC4CC4)c(C(F)(F)F)cc3n2)c2ccccc2c1=O (stereo not shown) [Compound 103, 2-[1-[[6-(cyclopropylmethoxy)-7-(trifluoromethyl)imidazo[1,2-a]pyridin-2-yl]methyl]-4-oxo-cinnolin-3-yl]butanoic acid]
16 | – | 1.05 | 0.133 | 47.9 | CC(C)(C)COc1cc2[nH]c(Cc3nn(CC(=O)N4CCOCC4)c(=O)c4ccccc34)nc2cc1Cl [Compound 160, 4-[[5-chloro-6-(2,2-dimethylpropoxy)-1H-benzimidazol-2-yl]methyl]-2-(2-morpholino-2-oxo-ethyl)phthalazin-1-one]
17 | – | 0.0799 | 0.00465 | – | CCOc1cc2[nH]c(Cc3nn(CC(=O)N4CCOCC4)c(=O)c4ccccc34)nc2cc1Cl [Compound 165, 4-[(5-chloro-6-ethoxy-1H-benzimidazol-2-yl)methyl]-2-(2-morpholino-2-oxo-ethyl)phthalazin-1-one]
18 | – | 0.112 | 0.2 | 120 | N#Cc1cc2[nH]c(Cc3nn(CC(=O)N4CC(O)(C5CC5)C4)c(=O)c4ccccc34)nc2cc1OCC(F)F [Compound 215, 2-[[3-[2-(3-cyclopropyl-3-hydroxy-azetidin-1-yl)-2-oxo-ethyl]-4-oxo-phthalazin-1-yl)methyl]-6-(2,2-difluoroethoxy)-3H-benzimidazole-5-carbonitrile]
19 | – | 2.35 | 2.66 | 11600 | N#Cc1cc2nc(Cc3nn(CC(=O)N4CCOCC4)c(=O)c4ccccc34)cn2cc1OCC(F)F [Compound 256, 6-(2,2-difluoroethoxy)-2-[[3-(2-morpholino-2-oxo-ethyl)-4-oxo-phthalazin-1-yl]methyl]imidazo[1,2-a]pyridine-7-carbonitrile]
20 | – | 0.0572 | 0.0124 | – | CCOc1cc2[nH]c(Cc3nn(CC(=O)O)c(=O)c4ccccc34)nc2cc1Cl [compound 6, 2-[4-[(5-chloro-6-ethoxy-1H-benzimidazol-2-yl)methyl]-1-oxo-phthalazin-2-yl]acetic acid]

Row | Structure (SMILES) | EC50 (S1PR2) [nM] | EC50 (HFL-1 cells [1]) [µM] | EC50 (HFL-1 cells [2]) [µM] | EC50 [3] [nM]
21 | CC(C)COc1cc2[nH]c(Cc3nn(CC(=O)N4CCOCC4)c(=O)c4ccccc34)nc2cc1Cl [Compound 173, 4-[(5-chloro-6-isobutoxy-1H-benzimidazol-2-yl)methyl]-2-(2-morpholino-2-oxo-ethyl)phthalazin-1-one] | – | 0.00347 | 0.0024 | 16
